Results: patent US20230310445A1, “LOX ENZYME INHIBITING METHODS AND COMPOSITIONS” (ANOVIA BIOSCIENCES, INC., priority 2020, published 2023)
pIC50: −log10 of the molar value.

Columns and labels:
[1] = molecular target: T1, Recombinant human LOXL2 (lysyl oxidase like 2) (Homo sapiens, UniProt Q9Y4K0); assay: LOXL2 inhibition assay (fluorometric, cadaverine/Amplex Red/HRP); type: biochemical; conditions: IC50 class; recombinant human LOXL2, cadaverine substrate; read-out: Activity Range LOXL2
T1 construct: purchased R&D systems
T1 sequence (Q9Y4K0 26-774): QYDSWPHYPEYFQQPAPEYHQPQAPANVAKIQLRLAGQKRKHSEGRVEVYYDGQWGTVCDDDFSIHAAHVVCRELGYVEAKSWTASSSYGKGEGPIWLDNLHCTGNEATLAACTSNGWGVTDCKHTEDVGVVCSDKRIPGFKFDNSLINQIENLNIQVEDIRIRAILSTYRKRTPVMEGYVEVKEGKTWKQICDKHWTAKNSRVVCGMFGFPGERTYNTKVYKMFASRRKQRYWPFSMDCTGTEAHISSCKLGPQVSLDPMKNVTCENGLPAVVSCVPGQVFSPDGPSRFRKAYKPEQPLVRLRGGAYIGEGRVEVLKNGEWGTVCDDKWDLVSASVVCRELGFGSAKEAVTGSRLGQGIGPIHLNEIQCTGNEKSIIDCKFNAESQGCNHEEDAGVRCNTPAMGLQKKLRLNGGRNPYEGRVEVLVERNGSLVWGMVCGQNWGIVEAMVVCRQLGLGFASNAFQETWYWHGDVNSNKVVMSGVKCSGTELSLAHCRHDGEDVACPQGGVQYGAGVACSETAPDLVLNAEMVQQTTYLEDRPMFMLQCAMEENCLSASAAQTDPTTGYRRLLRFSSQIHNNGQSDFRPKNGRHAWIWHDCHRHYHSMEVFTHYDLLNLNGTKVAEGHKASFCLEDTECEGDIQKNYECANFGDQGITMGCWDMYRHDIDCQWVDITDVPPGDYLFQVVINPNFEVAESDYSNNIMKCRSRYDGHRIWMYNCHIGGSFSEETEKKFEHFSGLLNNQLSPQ
Method: (§1) The ability of compounds to inhibit one or more of the lysyl oxidases LOXL2 and/or LOXL3 was determined using a fluorometric assay. This assay measures the activity of lysyl oxidases by coupling the reaction with horseradish peroxidase-catalyzed […]. The activity assay protocol uses cadaverine as substrate that releases hydrogen peroxide upon transformation by the specific LOX family enzyme present in the sample. Hydrogen peroxide is in turn detected using a red fluorescence substrate for HRP-coupled reactions (Amplex Red Enzyme Assays, Thermo Scientific Fisher). This leads to increase in fluorescence that can be easily detected at Ex/Em=540/590 nm in a fluorescence microplate reader.
Enzymes: Recombinant human LOXL2 (lysyl oxidase like 2) and recombinant human LOXL3 (lysyl oxidase like 3) were purchased from R&D systems and assays were performed in 1.2 M urea, 50 mM sodium borate buffer pH 8.0, and 10 mM CaCl.
Reaction: Final concentration in the LOXL2 and LOXL3 assays were as following and performed in a total volume of […]:
Experimental procedure: 5 μl of freshly prepared reaction buffer were delivered to reaction wells. Compounds were resuspended in 100% DMSO at 10 mM and delivered into buffer using acoustic technology (Echo550; nanoliter range). A 3× solution of LOXL2 or LOXL3 in reaction buffer was prepared (“enzyme solution”) and 5 μL of enzyme solution was added into the reaction wells. Buffer only was added to column 1 for no protein control. Reactions were incubated for 30 minutes at 37° C. A 3×mixture of cadaverine, Amplex Red, and HRP (“Substrate/Detection Mix) was prepared and subsequently 5 μL of the mixture added to each reaction well. Progress of reactions was monitored for 60 minutes at 37° C. using Clariostar plate reader (ex 530-12, ems 600-40). For all activity assays, pan-LOX inhibitor CCT365623 (Tang et al, 2017) and LOXL2/LOXL3 inhibitor PAT-1251 (PharmaKea) were included as standards.
Data analysis: Slope of the linear portion of the progress curve was calculated using Clariostar software. Typical analysis interval was between 8-30 min, but varied between experiments. The background subtracted signals (No protein wells are considered as background) were converted to % activity relative to DMSO controls. Data was analyzed using GraphPad Prism 4 with “sigmoidal dose-response (variable slope)”; 4 parameters with Hill Slope. Constraints: Bottom=Constant equal to 0. Top=Must be less than 120.

[2] = molecular target: T2, Bovine lysyl oxidase (LOX) (Bos taurus, UniProt P33072); assay: LOX inhibition assay (fluorometric, cadaverine/Amplex Red/HRP); type: biochemical; conditions: IC50 class; bovine tendon LOX, cadaverine substrate; read-out: Activity Range LOX
T2 construct: from tissue; host or cells: adult bovine tendon
T2 sequence (P33072 170-418): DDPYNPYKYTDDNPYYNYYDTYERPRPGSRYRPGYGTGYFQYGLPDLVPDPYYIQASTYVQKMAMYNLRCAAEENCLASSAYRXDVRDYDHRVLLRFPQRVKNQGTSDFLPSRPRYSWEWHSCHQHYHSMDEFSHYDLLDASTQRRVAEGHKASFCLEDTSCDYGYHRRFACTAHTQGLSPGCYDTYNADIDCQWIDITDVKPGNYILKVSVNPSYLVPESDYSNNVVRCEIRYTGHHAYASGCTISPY
Method: as §1, with “prototypic LOX” for “one or more of the lysyl oxidases LOXL2 and/or LOXL3”, “prototypic” for “the specific”, “LOX” for “LOX family”
Enzyme: Bovine lysyl oxidase (LOX) was extracted by adapting the methodology from [Kagan et al. 1979 and Borel et al. 2001.] from bovine tendon: Frozen adult bovine tendon was placed in room temperature water to defrost, and then membranes were removed and the remaining tissue cut into 1 cm pieces. The material was first passed through a course mesh meat grinder, and this mince was passed through a fine mesh grinder. The mince was homogenized in 10 v/w of buffer (16 mM sodium phosphate buffer pH 7.8, 400 mM NaCl) using a Waring blender. The homogenate was centrifuged at 15,000×g for 15 min at 4° C. After centrifugation, the supernatant was discarded and the pellets resuspended in 10 volumes of the same buffer. The mixture was blended again and centrifuged with the same settings. This time the pellets were blended in 3 volumes of extraction buffer (16 mM sodium phosphate buffer pH 7.8) and left to incubate at 4° C. for 2 h. After this time, the slurry was centrifuged with the same settings as described above. The supernatant was used in an ultrafiltration step to remove large proteins by size exclusion through a 30 kDalton filter (EMD Millipore). The filtrate was mixed with DEAE Sephadex (GE Healthcare), or passed over a MonoQ FPLC column. After two washes, one in 16 mM sodium phosphate buffer pH 7.8, 380 mM NaCl, and another in 16 mM sodium phosphate buffer pH 7.8, the proteins were eluted with 16 mM sodium phosphate pH 7.8, 10 μM CuSO4, and 4 M urea. Fractions containing Lox activity were collected and stored frozen at −70° C.
Reaction: Final concentration in the LOX assay was as following and performed in a total volume of […]:
Experimental procedure: 7 μl of freshly prepared reaction buffer were delivered to reaction wells. Compounds were resuspended in 100% DMSO at 10 mM and delivered into buffer using acoustic technology (Echo550; nanoliter range). A 2.85× solution of LOX protein in reaction buffer was prepared (“LOX solution”) and 7 μl of LOX solution was added into the reaction wells. Buffer only was added to column 1 for no protein control. Reactions were incubated for 30 minutes at 37° C. A 3.33× mixture of cadaverine, Amplex Red, and HRP (“Substrate/Detection Mix) was prepared and subsequently 6 μL of the mixture was added to each reaction well. Progress of reactions was monitored for 120 minutes at 37° C. using Clariostar plate reader (ex530-12, ems 600-40). For all activity assays, pan-LOX inhibitor CCT365623 (Tang et al, 2017) and LOXL2/LOXL3 inhibitor PAT-1251 (PharmaKea) were included as standards.
Data analysis: Slope of the linear portion of the progress curve was calculated using Clariostar software. Typical analysis interval was between 20-50 min, but varied between experiments. The background subtracted signals (No protein wells were considered as background) were converted to % activity relative to DMSO controls. Data was analyzed using GraphPad Prism 4 with “sigmoidal dose-response (variable slope)”; 4 parameters with Hill Slope. Constraints: Bottom=Constant equal to 0. Top=Must be less than 120.

SMILES	pIC50 [1]	pIC50 [2]
NCc1cccc(S(=O)(=O)[C@H]2C[C@H](C3CCCCC3)CN(C(=O)N3CCS(=O)(=O)CC3)C2)c1 (racemic) [Example 137T, trans-(3-((3-(Aminomethyl)phenyl)sulfonyl)-5-cyclohexylpiperidin-1-yl)(1,1-dioxidothiomorpholino)methanone]	≥ 6.30	< 4.52
NCc1cccc(S(=O)(=O)[C@@H]2C[C@H](C3CCCCC3)CN(C(=O)N3CCS(=O)(=O)CC3)C2)c1 (racemic) [Example 137, cis-(3-((3-(Aminomethyl)phenyl)sulfonyl)-5-cyclohexylpiperidin-1-yl)(1,1-dioxidothiomorpholino)methanone]	≥ 6.30	< 4.52
CS(=O)(=O)N1CCN(C(=O)[C@@H]2C[C@@H](c3ccccc3)CN(S(=O)(=O)c3ncc(CN)s3)C2)CC1 (racemic) [Example 113T, trans-(1-((5-(Aminomethyl)thiazol-2-yl)sulfonyl)-5-phenylpiperidin-3-yl)(4-(methylsulfonyl)piperazin-1-yl)methanone 2,2,2-trifluoroacetate]	≥ 6.30	4.52 to 6.00
NCc1ccnc(S(=O)(=O)N2C[C@H](C(=O)N3CCOCC3)C[C@H](N3CCCCC3=O)C2)c1 (racemic) [Example 186, cis-1′-((4-(Aminomethyl)pyridin-2-yl)sulfonyl)-5′-(morpholine-4-carbonyl)-[1,3′-bipiperidin]-2-one 2,2,2-trifluoroacetate]	≥ 6.30	4.52 to 6.00
CN(C)C(=O)N1C[C@@H](C2CCCCC2)C[C@@H](S(=O)(=O)c2cccc(CN)c2)C1 (racemic) [Example 135, cis-3-((3-(Aminomethyl)phenyl)sulfonyl)-5-cyclohexyl-N,N-dimethylpiperidine-1-carboxamide]	≥ 6.30	< 4.52
NCc1cccc(S(=O)(=O)N2C[C@@H](C(=O)N3CCS(=O)(=O)CC3)C[C@@H](c3ccccc3)C2)c1 (racemic) [Example 77]	4.52 to 6.00	< 4.52
NCc1ccc(S(=O)(=O)N2C[C@@H](C(=O)N3CCOCC3)C[C@@H](c3ccccc3)C2)s1 [Example 13A, ((3S,5S)-1-((5-(aminomethyl)thiophen-2-yl)sulfonyl)-5-phenylpiperidin-3-yl)(morpholino)methanone]	≥ 6.30	≥ 6.30
NCc1cccc(O[C@@H]2C[C@H](c3ccccc3)CN(C(=O)N3CCS(=O)(=O)CC3)C2)c1 (racemic) [Example 73, cis-(3-(3-(Aminomethyl)phenoxy)-5-phenylpiperidin-1-yl)(1,1-dioxidothiomorpholino)methanone]	4.52 to 6.00	< 4.52
NCc1cccc(O[C@@H]2C[C@H](c3ccccc3)CN(C(=O)N3CCOCC3)C2)c1 (racemic) [Example 72]	4.52 to 6.00	< 4.52
CN(C)C(=O)[C@H]1C[C@H](S(=O)(=O)c2cccc(CN)c2)CN(C2CCCCC2)C1 (racemic) [Example 141T, trans-5-((3-(Aminomethyl)phenyl)sulfonyl)-1-cyclohexyl-N,N-dimethylpiperidine-3-carboxamide]	≥ 6.30	< 4.52
NCc1cccc(S(=O)(=O)N2C[C@@H](C(=O)N3CCS(=O)(=O)CC3)C[C@@H](C(F)(F)F)C2)c1 (racemic) [Example 99, cis-(1-((3-(Aminomethyl)phenyl)sulfonyl)-5-(trifluoromethyl)piperidin-3-yl)(1,1-dioxidothiomorpholino)methanone 2,2,2-trifluoroacetate]	4.52 to 6.00	< 4.52
CS(=O)(=O)N1CCN(C(=O)[C@H]2C[C@@H](c3ccccc3)CN(S(=O)(=O)c3ncc(CN)s3)C2)CC1 (racemic) [Example 113, cis-(1-((5-(Aminomethyl)thiazol-2-yl)sulfonyl)-5-phenylpiperidin-3-yl)(4-(methylsulfonyl)piperazin-1-yl)methanone 2,2,2-trifluoroacetate]	≥ 6.30	4.52 to 6.00
NCc1ccnc(S(=O)(=O)N2C[C@@H](C(=O)N3CCS(=O)(=O)CC3)C[C@@H](N3CCCCC3)C2)c1 (racemic) [Example 148, cis-(1′-((4-(Aminomethyl)pyridin-2-yl)sulfonyl)-[1,3′-bipiperidin]-5′-yl)(1,1-dioxidothiomorpholino)methanone 2,2,2-trifluoroacetate]	≥ 6.30	4.52 to 6.00
